# Test results from patent US12559461B2, “Antibiotic adjuvant compounds” (UNIVERSITY OF NOTRE DAME DU LAC, priority 2020, dated 2026).
# “Also recorded” adds a separate entry of the source. Like-named read-outs stand apart in the source and are kept apart here.
# Experiments:
# [1] = test system: AB5075; settings: previously reported, cited from earlier work
# [2] = test system: AB5075; assay: Evolution of clarithromycin resistance by serial passage; format: cell-based, Acinetobacter baumannii
# Procedure: A. baumannii 5075 was grown in CAMHB overnight then subcultured (5×10^5 CFU/mL) in 6 mL of fresh CAMHB. Adjuvant was added into this 6-mL subculture at either 10 or 30 μM concentrations. […] This was serially repeated for a period of nine days.
# [3] = test system: AB5075; settings: previously reported, cited from earlier work; remark: listed apart in the source
# [4] = test system: AB5075; settings: compound alone, previously reported; cited from earlier work
# [5] = test system: AB5075; assay: Broth microdilution clarithromycin (CLR) potentiation and dose-response of adjuvant; format: cell-based, Acinetobacter baumannii
# Outline: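 A. baumannii AB5075 at 5×10^5 CFU/mL in CAMHB with fixed adjuvant (DMSO ≤0.3%) and two-fold serially diluted clarithromycin or colistin, stationary 16 h at 37° C. MIC = lowest concentration without visible growth; fold reduction versus antibiotic alone. Dose-response used adjuvant at 0–30 μM.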
# [6] = test system: E. coli biofilm formation; settings: Bioorg Med Chem Lett 2010; cited from earlier work
# [7] = test system: AB5075; assay: Broth microdilution MIC of compound alone (standalone toxicity); format: cell-based, Acinetobacter baumannii
# Outline: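 A. baumannii 5075 subcultured to 5×10^5 CFU/mL in cation-adjusted Mueller-Hinton broth; compound twofold serially diluted from 200 μM (DMSO stock) and incubated stationary at 37° C for 16 h. MIC taken as lowest concentration with no visible growth; duplicates, repeated at least twice.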
# [8] = test system: AB5075; assay: Colistin MIC in presence of adjuvant (broth microdilution antibiotic potentiation); format: cell-based, Acinetobacter baumannii
# Procedure: Bacterial Strains and Antimicrobial Agents. Acinetobacter baumannii clinical isolate 5075 was obtained from Dr. Colin Manoil at the University of Washington. Colonies were grown on lysogeny broth (LB) agar. Cation-adjusted Mueller-Hinton Broth (CAMHB) (catalog number 212322) were purchased from BD Diagnostics. LB broth was purchased from Fisher Scientific (catalog number BP9722-2). […] Colistin sulfate salt (catalog number C4461) was purchased from Sigma Aldrich. All assays were completed in duplicate and repeated at least two separate times. All compounds were dissolved as their HCl salts in molecular biology grade DMSO as 10 or 100 mM stock solutions and stored at −20° C. Colistin was dissolved in sterile water while clarithromycin was dissolved in molecular biology grade DMSO.
# Broth microdilution method for antibiotic potentiation. Day cultures (6 h) of bacteria in CAMHB were subcultured to 5×10^5 CFU/mL in CAMHB. Aliquots (4 mL) were placed in culture tubes and dosed with compound from 10 mM stock samples to give the desired concentration of the compound to be tested against the particular bacterial strain; this insured non-toxic DMSO concentrations ≤0.3% in each well. 1 mL of the resulting solution was placed in a separate culture and dosed with antibiotic at the highest concentration to be tested. Bacteria treated with antibiotic alone served as the control. Row one of a 96-well plate was filled with 200 μL of the antibiotic/2-AI solution, and rows 2-12 were filled with 100 μL each of the remaining 4 mL of bacterial subculture containing adjuvant at the desired concentration, except for the control lane which contained only bacterial subculture. Row one was then mixed five times, and 100 μL was transferred to row two, which was then mixed five times before being transferred to row three. This process was repeated until all rows had been mixed, except for row twelve which would have only 2-AI to serve as a control to monitor potential toxicity. The 96-well plate was then covered in Glad Press n'Seal and incubated under stationary conditions at 37° C. for 16 h. MIC values were determined as the lowest concentration at which no bacterial growth was observed, and fold reductions were determined by comparison to antibiotic control lane.
# Dose-response of Adjuvant Assay. The procedure for ‘broth microdilution method for antibiotic potentiation’ was followed using 4 mL aliquots of adjuvant at various concentrations: 0, 5, 7.5, 10, 15, 20, 25, and 30 μM.
# [9] = passaging with CLR and 30 μM adjuvant 1, day 2 and day 9, adjuvant 1 at 30 μM
compound,measurement,setting,value
"Cl.Nc1nc(-c2ccc(NC(=O)c3cc(Cl)cc(Cl)c3)cc2)c[nH]1 [Compound 1, N-(4-(2-amino-1H-imidazol-4-yl)phenyl)-3,5-dichlorobenzamide hydrochloride]",Fold Reduction of CLR MIC,[1]; compound at 10 μM,16 fold
same,suppression of evolution of CLR resistance,"[2]; AB5075 passaged with CLR and 30 μM adjuvant, nine-day course, hydrochloride",suppressed the increase in macrolide resistance; also recorded: suppresses the acquisition of CLR resistance
same,CLR MIC,"[2]; CLR-resistant AB5075 mutant from CLR-alone passaging, compound at 30 μM",2 µg/mL
same,CLR MIC,[2]; [9],0.25 µg/mL
same,Fold Reduction of CLR MIC,[2]; [9],128 fold
same,CLR MIC,"[2]; serial passage with CLR + adjuvant 1 (30 μM), day 2, compound 1 tested at 30 μM",0.25 µg/mL
same,CLR MIC,"[2]; serial passage with CLR + adjuvant 1 (30 μM), day 4, compound 1 tested at 30 μM",0.25 µg/mL
same,CLR MIC,"[2]; serial passage with CLR + adjuvant 1 (30 μM), day 6, compound 1 tested at 30 μM",0.25 µg/mL
same,CLR MIC,"[2]; serial passage with CLR + adjuvant 1 (30 μM), day 8, compound 1 tested at 30 μM",≤0.5 µg/mL
same,CLR MIC,"[2]; serial passage with CLR + adjuvant 1 (30 μM), day 10, compound 1 tested at 30 μM",0.25 µg/mL
same,Colistin MIC,[3]; compound at 30 μM,4 µg/mL
Nc1nc(-c2ccc(NC(=O)c3cc(Br)cc(Br)c3)cc2)c[nH]1 [Compound 2],Fold Reduction of CLR MIC,[1]; compound at 10 μM,16 fold
same,Fold Reduction of CLR MIC,[1]; compound at 30 μM,128 fold
same,MIC,[4],100 µM
same,Colistin MIC,[3]; compound at 30 μM,4 µg/mL
Nc1nc(-c2ccc(NC(=O)c3cc(F)cc(F)c3)cc2)c[nH]1 [Compound 4k],CLR MIC,[5]; compound tested at 30 μM,4 µg/mL
same,Fold Reduction of CLR MIC,[5]; compound tested at 30 μM,eight-fold
same,"adjuvant activity (CLR potentiation), rank by amide linker position",[5]; dosed at 30 μM,highest adjuvant activity
same,biofilm inhibition activity,[6],lead biofilm inhibitor
same,MIC,[7]; Acinetobacter baumannii,> 200 µM
Cl.Nc1nc(-c2ccc(NC(=O)c3c(Cl)cc(Cl)cc3Cl)cc2)c[nH]1 [Compound 4s],Colistin MIC,[8]; compound tested at 30 μM,0.25 µg/mL
same,CLR MIC,[5]; compound tested at 10 μM,32 µg/mL
same,CLR MIC,[5]; compound tested at 20 μM,16 µg/mL
same,CLR MIC,[5]; compound tested at 25 μM,8 µg/mL
same,MIC,[7],100 µM
Cl.Nc1nc(-c2ccc(NC(=O)c3cc(F)c(F)c(F)c3)cc2)c[nH]1 [Compound 4v],Colistin MIC,[8]; compound tested at 30 μM,1 µg/mL
same,CLR MIC,[5]; compound tested at 10 μM,32 µg/mL
same,CLR MIC,[5]; compound tested at 20 μM,8 µg/mL
same,CLR MIC,[5]; compound tested at 30 μM,1 µg/mL
same,MIC,[7],100 µM
Colistin sulfate salt [reference compound],Colistin MIC,"[8]; colistin alone, no adjuvant",0.5 µg/mL
same,Colistin MIC,[3]; colistin alone,1 µg/mL
